The record followed here is US20200255478A1, “NOVEL COMPOUNDS ACTIVATING THE NRF2 PATHWAY” (Almirall, S.A., priority 2017, published 2020).

Molecules are shown by their SMILES. Starred links: 1 amine or outer side, 2 acyl side, 3 side chain; linkers in the order of their positions; H or OH if unused. Positions of bridges follow the written chain, without caps; N, C: chain ends. Non-standard residues stand in square brackets, D forms with d. Residues, ends and D or L forms follow the SMILES beside them. mXylylene = c1cc(C[*:1])cc(C[*:2])c1; oXylylene = c1ccc(C[*:2])c(C[*:1])c1; βAla = NCCC(=O)O

The first assay deals with Keap1-Maltose Binding Protein (MBP tag) (Homo sapiens, UniProt Q14145). The experiment in a line: Nrf2-Keap1 HTRF (TR-FRET) binding assay: displacement of biotinylated ETGE peptide from Keap1-MBP.
Chain of Keap1-Maltose Binding Protein (MBP tag) (Q14145 whole entry): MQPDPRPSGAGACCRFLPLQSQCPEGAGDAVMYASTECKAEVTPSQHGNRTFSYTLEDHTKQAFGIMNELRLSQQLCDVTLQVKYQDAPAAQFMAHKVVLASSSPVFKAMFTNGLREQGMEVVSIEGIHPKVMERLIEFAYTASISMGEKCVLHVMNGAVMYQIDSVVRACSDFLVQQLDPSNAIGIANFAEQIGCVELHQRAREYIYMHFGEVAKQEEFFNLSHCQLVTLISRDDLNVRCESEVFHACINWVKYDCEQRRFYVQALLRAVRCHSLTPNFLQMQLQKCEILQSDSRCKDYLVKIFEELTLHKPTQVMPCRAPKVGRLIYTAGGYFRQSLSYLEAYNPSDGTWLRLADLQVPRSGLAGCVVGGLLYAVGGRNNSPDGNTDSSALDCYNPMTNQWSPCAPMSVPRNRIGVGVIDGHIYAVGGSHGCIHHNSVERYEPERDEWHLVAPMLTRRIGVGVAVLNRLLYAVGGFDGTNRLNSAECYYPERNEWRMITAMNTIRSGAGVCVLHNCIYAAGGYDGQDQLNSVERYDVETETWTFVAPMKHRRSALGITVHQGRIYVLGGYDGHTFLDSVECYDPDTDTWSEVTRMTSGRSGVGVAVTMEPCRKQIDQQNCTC
Settings: not given
In general terms: In TR-FRET formats the signal depends on donor and acceptor labels being close together.
Broadly, the IC50 is the point on the concentration scale where inhibition reaches its midpoint. `CC(C)C[C@@H]1NC(=O)[C@@H]2CCCN2C(=O)[C@H](CC(C)C)NC(=O)[C@@H]2CSCc3cccc(c3)CSC[C@H](NC(=O)[C@H](CCC(N)=O)NC1=O)C(=O)N[C@@H](CC(=O)O)C(=O)N[C@@H](C)C(=O)N[C@@H](CCC(=O)O)C(=O)N[C@@H]([C@@H](C)O)C(=O)NCC(=O)N[C@@H](CCC(=O)O)C(=O)N2` [Example 17] (cyclo(AETGECLPLQCD); linker 6-11 via mXylylene) returned a half-inhibitory concentration (IC50) of 1 to 100 nM.

The assay is the same for the next values; noted with them: HTRF (TR-FRET); displacement of ETGE-biotin from Keap1-MBP; values banded into grades; read-out: Binding (IC50) ETGE-Keap1.
Consider `CC(C)C[C@H](NC(=O)[C@@H]1CSCc2cccc(c2)CSC[C@H](NC(=O)[C@H](CCC(N)=O)NC(=O)[C@@H](N)CC(C)C)C(=O)N[C@@H](CC(=O)O)C(=O)N[C@@H](C)C(=O)N[C@@H](CCC(=O)O)C(=O)N[C@@H]([C@@H](C)O)C(=O)NCC(=O)N[C@@H](CCC(=O)O)C(=O)N1)C(=O)N1CCC[C@H]1C(=O)O` [Example 14, {[H-Leu-Gln-Cys(&^1)-Asp-Ala-Glu-Thr-Gly-Glu-Cys(&^2)-Leu-Pro-OH][&^1(1,3-phenylenediyl)dimethylene&^2]}] (H-LQCDAETGECLP-OH; linker 3-10 via mXylylene), for which the IC50 is less than 1 nM.

`CC(C)C[C@H](NC(=O)[C@@H]1CSCc2cccc(c2)CSC[C@H](NC(=O)[C@H](CCC(N)=O)NC(=O)[C@@H](N)CC(C)C)C(=O)N[C@@H](CC(=O)O)C(=O)N[C@@H](C)C(=O)N[C@@H](CCC(=O)O)C(=O)N[C@@H]([C@@H](C)O)C(=O)NCC(=O)N[C@@H](CCC(=O)O)C(=O)N1)C(=O)N1CCC[C@H]1C(=O)NCCC(=O)N[C@@H](Cc1ccc(O)cc1)C(=O)N[C@@H](C)C(=O)N[C@@H](CCCNC(=N)N)C(=O)N[C@@H](C)C(=O)N[C@@H](C)C(=O)N[C@@H](C)C(=O)N[C@@H](CCCNC(=N)N)C(=O)N[C@@H](CCC(N)=O)C(=O)N[C@@H](C)C(=O)N[C@@H](CCCNC(=N)N)C(=O)N[C@@H](C)C(N)=O` [Example 15] (H-LQCDAETGECLP[βAla]YARAAARQARA-NH2; linker 3-10 via mXylylene): the IC50 lay within 1 to 100 nM.

With `CC(C)C[C@H](NC(=O)[C@@H]1CSCc2cccc(c2)CSC[C@H](NC(=O)[C@H](CCC(N)=O)NC(=O)[C@@H](N)CC(C)C)C(=O)N[C@@H](CC(=O)O)C(=O)N[C@@H](C)C(=O)N[C@@H](CCC(=O)O)C(=O)N[C@@H]([C@@H](C)O)C(=O)NCC(=O)N[C@@H](CCC(=O)O)C(=O)N1)C(=O)N1CCC[C@H]1C(=O)NCCC(=O)N[C@@H](CCCNC(=N)N)C(=O)N[C@@H](CCCCN)C(=O)N[C@@H](CCCCN)C(=O)N[C@@H](CCCNC(=N)N)C(=O)N[C@@H](CCCNC(=N)N)C(=O)N[C@@H](CCC(N)=O)C(=O)N[C@@H](CCCNC(=N)N)C(=O)N[C@@H](CCCNC(=N)N)C(=O)N[C@@H](CCCNC(=N)N)C(N)=O` [Example 16], the IC50 was less than 1 nM.

Regarding `CC(C)C[C@H](NC(=O)[C@@H]1CSCc2ccccc2CSC[C@H](NC(=O)[C@H](CCC(N)=O)NC(=O)[C@@H](N)CC(C)C)C(=O)N[C@@H](CC(=O)O)C(=O)N[C@@H](C)C(=O)N[C@@H](CCC(=O)O)C(=O)N[C@@H]([C@@H](C)O)C(=O)NCC(=O)N[C@@H](CCC(=O)O)C(=O)N1)C(=O)N1CCC[C@H]1C(=O)NCCC(=O)N[C@@H](CCCNC(=N)N)C(=O)N[C@@H](CCCCN)C(=O)N[C@@H](CCCCN)C(=O)N[C@@H](CCCNC(=N)N)C(=O)N[C@@H](CCCNC(=N)N)C(=O)N[C@@H](CCC(N)=O)C(=O)N[C@@H](CCCNC(=N)N)C(=O)N[C@@H](CCCNC(=N)N)C(=O)N[C@@H](CCCNC(=N)N)C(N)=O` [Example 18], the IC50 lay in the range of 1 to 100 nM.

As for `CC(C)C[C@H](NC(=O)[C@@H]1CSCc2ccccc2CSC[C@H](NC(=O)[C@H](CCC(N)=O)NC(=O)[C@@H](N)CC(C)C)C(=O)N[C@@H](CC(=O)O)C(=O)N[C@@H](C)C(=O)N[C@@H](CCC(=O)O)C(=O)N[C@@H]([C@@H](C)O)C(=O)NCC(=O)N[C@@H](CCC(=O)O)C(=O)N1)C(=O)N1CCC[C@H]1C(=O)O` [Example 19, {[H-Leu-Gln-Cys(&^1)-Asp-Ala-Glu-Thr-Gly-Glu-Cys(&^2)-Leu-Pro-OH][&^1(1,2-phenylenediyl)dimethylene&^2]}] (H-LQCDAETGECLP-OH; linker 3-10 via oXylylene), the concentration for half-maximal inhibition (IC50) lay in the range of 1 to 100 nM.
